Source: patent US20020081602A1, “Method for the detection of compounds that modulate the effects of the obese (ob) protein” (SmithKline Beecham p.1.c., priority 1996, published 2002)

Columns and labels:
WRL68 cells = test: c-fos expression by northern blotting in serum-starved WRL68 cells; type: cell-based; conditions: treated 5 minutes to 2 hours, normalised to beta-actin
Experimental: 7. Detection of increased c-fos mRNA after treatment with leptin. C-fos mRNA may be detected by Northern, RT-PCR or “slot blot” analysis.
WRL68 cells were grown to confluence in their standard culture medium in the simultaneous presence of 10% foetal calf serum. At confluence the cells were transferred to serum-free medium for a minimum of 18 hours (lowering the serum concentration may also produce similar results). Serum-starved cells were then treated with leptin or with serum (as positive control for c-fos upregulation) for varying time periods from 5 minutes to 2 hours. RNA was extracted from the cells and subjected to gel electrophoresis and northern blotting. The blotted RNA was then probed with a c-fos labelled probe to analyze the expression of c-fos, the data being normalised by analysing the expression of beta-actin. […] Therefore WRL68 cells is expected to be suitable for identification of leptin mimetics. Other cell lines could also be identified via analysis of c-fos expression in response to leptin.

[1] = tested on: rat-1 fibroblasts over expressing insulin receptors; conditions: Kroder et al. 1996; cited from earlier work

Leptin: secreted hormone that acts as signal from adipose tissue to other organs to regulate weight and energy balance
c-fos expression (WRL68 cells): significantly enhanced
insulin stimulated phosphorylation of the insulin receptor and insulin receptor substrate-I [1]: inhibition
